{
  "source": "paper PMC5078040",
  "about": "(Oncotarget, 2016)",
  "assay_in_all_cases": "KinomeScan",
  "type_in_all_cases": "binding",
  "settings_in_all_cases": "1uM",
  "key": {"MST1": {"biological_target": "T1, MST1 (Homo sapiens, UniProt Q13043)", "T1 construct": "purchased DiscoveRx KINOMEscan"}, "CSNK1A1": {"biological_target": "T2, CSNK1A1 (Homo sapiens, UniProt P48729)", "T2 construct": "purchased DiscoveRx KINOMEscan"}, "HUNK": {"biological_target": "T3, HUNK (Homo sapiens, UniProt P57058)", "T3 construct": "purchased DiscoveRx KINOMEscan"}, "SgK110": {"biological_target": "T4, SgK110 (Homo sapiens, UniProt P0C264)", "T4 construct": "purchased DiscoveRx KINOMEscan"}, "MAK": {"biological_target": "T5, MAK (Homo sapiens, UniProt P20794)", "T5 construct": "purchased DiscoveRx KINOMEscan"}, "MEK6": {"biological_target": "T6, MEK6 (Homo sapiens, UniProt P52564)", "T6 construct": "purchased DiscoveRx KINOMEscan"}, "ALK(L1196M)": {"biological_target": "T7, ALK(L1196M) (Homo sapiens, UniProt Q9UM73, L1196M)", "T7 construct": "purchased DiscoveRx KINOMEscan"}, "PHKG2": {"biological_target": "T8, PHKG2 (Homo sapiens, UniProt P15735)", "T8 construct": "purchased DiscoveRx KINOMEscan"}, "PKN1": {"biological_target": "T9, PKN1 (Homo sapiens, UniProt Q16512)", "T9 construct": "purchased DiscoveRx KINOMEscan"}, "TRKB": {"biological_target": "T10, TRKB (Homo sapiens, UniProt Q16620)", "T10 construct": "purchased DiscoveRx KINOMEscan", "T10 sequence (Q16620 32-822)": "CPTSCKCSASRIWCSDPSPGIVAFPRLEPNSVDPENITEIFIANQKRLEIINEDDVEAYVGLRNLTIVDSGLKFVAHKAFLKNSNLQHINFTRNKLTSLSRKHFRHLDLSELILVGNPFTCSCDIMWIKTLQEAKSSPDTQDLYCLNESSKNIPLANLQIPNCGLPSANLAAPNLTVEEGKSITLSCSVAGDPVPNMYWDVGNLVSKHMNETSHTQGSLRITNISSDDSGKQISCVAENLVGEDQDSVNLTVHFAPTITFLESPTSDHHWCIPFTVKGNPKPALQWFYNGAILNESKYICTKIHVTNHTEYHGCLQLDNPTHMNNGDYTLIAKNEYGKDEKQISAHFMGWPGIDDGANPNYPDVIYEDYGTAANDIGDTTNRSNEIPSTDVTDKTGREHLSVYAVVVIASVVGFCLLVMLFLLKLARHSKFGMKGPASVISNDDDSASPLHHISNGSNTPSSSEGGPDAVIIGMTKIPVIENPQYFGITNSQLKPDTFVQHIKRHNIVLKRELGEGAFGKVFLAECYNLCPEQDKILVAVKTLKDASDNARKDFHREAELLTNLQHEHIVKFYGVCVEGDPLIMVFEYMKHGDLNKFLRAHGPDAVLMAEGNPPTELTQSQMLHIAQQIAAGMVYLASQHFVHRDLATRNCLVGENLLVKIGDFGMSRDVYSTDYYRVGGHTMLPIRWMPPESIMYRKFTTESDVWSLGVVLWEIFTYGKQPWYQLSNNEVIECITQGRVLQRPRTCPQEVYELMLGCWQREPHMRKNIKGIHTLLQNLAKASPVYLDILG"}, "EIF2AK1": {"biological_target": "T11, EIF2AK1 (Homo sapiens, UniProt Q9BQI3)", "T11 construct": "purchased DiscoveRx KINOMEscan"}, "EPHB1": {"biological_target": "T12, EPHB1 (Homo sapiens, UniProt P54762)", "T12 construct": "purchased DiscoveRx KINOMEscan", "T12 sequence (P54762 18-984)": "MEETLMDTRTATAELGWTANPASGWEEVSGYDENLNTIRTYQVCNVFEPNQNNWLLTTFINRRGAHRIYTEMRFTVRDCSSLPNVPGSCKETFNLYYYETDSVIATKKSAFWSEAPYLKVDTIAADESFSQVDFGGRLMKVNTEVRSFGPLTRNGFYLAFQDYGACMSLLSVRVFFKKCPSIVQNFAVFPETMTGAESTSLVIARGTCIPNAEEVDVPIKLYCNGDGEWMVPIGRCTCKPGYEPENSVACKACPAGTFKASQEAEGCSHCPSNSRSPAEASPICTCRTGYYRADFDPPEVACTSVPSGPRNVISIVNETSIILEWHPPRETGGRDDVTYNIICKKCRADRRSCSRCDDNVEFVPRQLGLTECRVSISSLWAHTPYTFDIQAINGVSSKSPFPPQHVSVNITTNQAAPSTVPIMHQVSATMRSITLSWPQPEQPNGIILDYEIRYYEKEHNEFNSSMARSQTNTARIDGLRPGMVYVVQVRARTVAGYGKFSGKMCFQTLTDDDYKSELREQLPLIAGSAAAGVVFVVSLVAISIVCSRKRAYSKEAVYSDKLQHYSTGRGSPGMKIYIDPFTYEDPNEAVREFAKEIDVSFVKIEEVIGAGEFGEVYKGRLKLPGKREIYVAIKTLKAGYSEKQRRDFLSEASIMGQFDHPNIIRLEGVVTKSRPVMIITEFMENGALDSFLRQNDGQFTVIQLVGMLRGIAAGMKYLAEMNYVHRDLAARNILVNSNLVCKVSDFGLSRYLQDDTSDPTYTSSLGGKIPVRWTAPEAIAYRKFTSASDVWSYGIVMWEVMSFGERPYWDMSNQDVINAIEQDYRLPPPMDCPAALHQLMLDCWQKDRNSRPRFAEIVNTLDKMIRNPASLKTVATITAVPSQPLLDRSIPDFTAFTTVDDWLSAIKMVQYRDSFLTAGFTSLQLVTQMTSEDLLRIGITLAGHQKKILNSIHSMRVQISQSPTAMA"}, "PRKCE": {"biological_target": "T13, PRKCE (Homo sapiens, UniProt Q02156)", "T13 construct": "purchased DiscoveRx KINOMEscan"}, "FLT3(D835H)": {"biological_target": "T14, FLT3(D835H) (Homo sapiens, UniProt P36888, D835H)", "T14 construct": "purchased DiscoveRx KINOMEscan"}, "BRK": {"biological_target": "T15, BRK (Homo sapiens, UniProt Q13882)", "T15 construct": "purchased DiscoveRx KINOMEscan"}, "[1]": {"biological_target": "T16, RPS6KA4(Kin.Dom.1-N-terminal) (Homo sapiens, UniProt O75676)", "T16 construct": "RPS6KA4(Kin.Dom.1-N-terminal); purchased DiscoveRx KINOMEscan"}, "MAST1": {"biological_target": "T17, MAST1 (Homo sapiens, UniProt Q9Y2H9)", "T17 construct": "purchased DiscoveRx KINOMEscan"}, "ALK": {"biological_target": "T18, ALK (Homo sapiens, UniProt Q9UM73)", "T18 construct": "purchased DiscoveRx KINOMEscan"}, "TTK": {"biological_target": "T19, TTK (Homo sapiens, UniProt P33981)", "T19 construct": "purchased DiscoveRx KINOMEscan"}, "INSR": {"biological_target": "T20, INSR (Homo sapiens, UniProt P06213)", "T20 construct": "purchased DiscoveRx KINOMEscan"}, "MAP3K2": {"biological_target": "T21, MAP3K2 (Homo sapiens, UniProt Q9Y2U5)", "T21 construct": "purchased DiscoveRx KINOMEscan"}, "ZAP70": {"biological_target": "T22, ZAP70 (Homo sapiens, UniProt P43403)", "T22 construct": "purchased DiscoveRx KINOMEscan"}, "MARK4": {"biological_target": "T23, MARK4 (Homo sapiens, UniProt Q96L34)", "T23 construct": "purchased DiscoveRx KINOMEscan"}, "NIM1": {"biological_target": "T24, NIM1 (Homo sapiens, UniProt Q8IY84)", "T24 construct": "purchased DiscoveRx KINOMEscan"}, "IRAK1": {"biological_target": "T25, IRAK1 (Homo sapiens, UniProt P51617)", "T25 construct": "purchased DiscoveRx KINOMEscan"}, "MET(M1250T)": {"biological_target": "T26, MET(M1250T) (Homo sapiens, UniProt P08581, M1250T)", "T26 construct": "purchased DiscoveRx KINOMEscan", "T26 sequence (P08581 25-1390 M1250T)": "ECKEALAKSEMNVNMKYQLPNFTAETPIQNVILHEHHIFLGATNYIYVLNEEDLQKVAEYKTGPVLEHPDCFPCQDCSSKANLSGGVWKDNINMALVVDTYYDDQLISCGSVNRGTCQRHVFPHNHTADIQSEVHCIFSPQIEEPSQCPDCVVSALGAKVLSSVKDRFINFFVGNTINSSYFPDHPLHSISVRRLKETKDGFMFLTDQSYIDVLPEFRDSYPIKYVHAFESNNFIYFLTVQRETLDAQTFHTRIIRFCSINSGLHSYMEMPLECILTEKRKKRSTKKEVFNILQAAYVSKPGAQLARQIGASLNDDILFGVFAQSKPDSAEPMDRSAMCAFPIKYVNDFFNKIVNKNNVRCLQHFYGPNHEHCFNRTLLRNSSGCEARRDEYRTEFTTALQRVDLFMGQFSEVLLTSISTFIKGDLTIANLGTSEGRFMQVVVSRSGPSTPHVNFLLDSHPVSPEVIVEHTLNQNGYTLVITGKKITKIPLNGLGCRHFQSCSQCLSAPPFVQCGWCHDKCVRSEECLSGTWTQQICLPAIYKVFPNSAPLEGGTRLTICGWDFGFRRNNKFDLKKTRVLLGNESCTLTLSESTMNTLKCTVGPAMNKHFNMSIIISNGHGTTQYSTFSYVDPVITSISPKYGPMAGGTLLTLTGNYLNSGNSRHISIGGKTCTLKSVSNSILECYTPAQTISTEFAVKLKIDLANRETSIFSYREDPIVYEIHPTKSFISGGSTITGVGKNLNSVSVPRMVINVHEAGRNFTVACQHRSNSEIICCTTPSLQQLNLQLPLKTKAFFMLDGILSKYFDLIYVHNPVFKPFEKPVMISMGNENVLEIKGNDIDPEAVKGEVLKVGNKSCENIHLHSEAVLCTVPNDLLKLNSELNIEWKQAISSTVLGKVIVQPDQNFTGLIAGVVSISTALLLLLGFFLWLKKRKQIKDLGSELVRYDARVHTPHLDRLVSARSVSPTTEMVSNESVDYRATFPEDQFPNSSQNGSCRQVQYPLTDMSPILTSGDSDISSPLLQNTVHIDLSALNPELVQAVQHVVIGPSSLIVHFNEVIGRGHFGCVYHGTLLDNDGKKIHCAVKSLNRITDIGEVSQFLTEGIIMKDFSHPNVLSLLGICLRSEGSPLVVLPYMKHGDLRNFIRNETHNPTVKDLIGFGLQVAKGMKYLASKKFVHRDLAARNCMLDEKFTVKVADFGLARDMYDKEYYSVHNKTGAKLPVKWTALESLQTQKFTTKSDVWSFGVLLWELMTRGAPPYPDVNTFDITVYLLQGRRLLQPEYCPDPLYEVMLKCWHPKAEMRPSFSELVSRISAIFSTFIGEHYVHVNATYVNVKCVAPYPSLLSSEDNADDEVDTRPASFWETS"}, "LCK": {"biological_target": "T27, LCK (Homo sapiens, UniProt P06239)", "T27 construct": "purchased DiscoveRx KINOMEscan"}, "[2]": {"biological_target": "T28, RSK3(Kin.Dom.1-N-terminal) (Homo sapiens, UniProt Q15349)", "T28 construct": "RSK3(Kin.Dom.1-N-terminal); purchased DiscoveRx KINOMEscan", "T28 sequence (Q15349 1-388 limits assumed)": "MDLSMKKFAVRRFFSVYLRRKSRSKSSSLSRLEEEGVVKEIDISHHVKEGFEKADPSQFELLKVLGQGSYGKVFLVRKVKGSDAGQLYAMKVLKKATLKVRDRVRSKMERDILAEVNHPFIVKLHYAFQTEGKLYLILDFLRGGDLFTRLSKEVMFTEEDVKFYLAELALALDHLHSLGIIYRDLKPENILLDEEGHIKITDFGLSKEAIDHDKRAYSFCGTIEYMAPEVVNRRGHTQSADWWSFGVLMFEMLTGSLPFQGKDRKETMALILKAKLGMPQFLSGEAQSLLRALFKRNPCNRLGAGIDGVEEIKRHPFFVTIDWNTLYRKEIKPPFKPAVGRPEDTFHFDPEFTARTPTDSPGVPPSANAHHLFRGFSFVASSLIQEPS"}, "FLT3": {"biological_target": "T29, FLT3 (Homo sapiens, UniProt P36888)", "T29 construct": "purchased DiscoveRx KINOMEscan"}, "EGFR(E746-A750del)": {"biological_target": "T30, EGFR(E746-A750del) (Homo sapiens, UniProt P00533, DEL746-750)", "T30 construct": "purchased DiscoveRx KINOMEscan"}, "PKNB(M.tuberculosis)": {"biological_target": "T31, PKNB(M.tuberculosis) (Mycobacterium tuberculosis, UniProt P9WI81)", "T31 construct": "purchased DiscoveRx KINOMEscan"}, "HPK1": {"biological_target": "T32, HPK1 (Homo sapiens, UniProt Q92918)", "T32 construct": "purchased DiscoveRx KINOMEscan"}, "[3]": {"biological_target": "T33, JAK3(JH1domain-catalytic) (Homo sapiens, UniProt P52333)", "T33 construct": "JAK3(JH1domain-catalytic); purchased DiscoveRx KINOMEscan", "T33 sequence (P52333 822-1124 limits assumed)": "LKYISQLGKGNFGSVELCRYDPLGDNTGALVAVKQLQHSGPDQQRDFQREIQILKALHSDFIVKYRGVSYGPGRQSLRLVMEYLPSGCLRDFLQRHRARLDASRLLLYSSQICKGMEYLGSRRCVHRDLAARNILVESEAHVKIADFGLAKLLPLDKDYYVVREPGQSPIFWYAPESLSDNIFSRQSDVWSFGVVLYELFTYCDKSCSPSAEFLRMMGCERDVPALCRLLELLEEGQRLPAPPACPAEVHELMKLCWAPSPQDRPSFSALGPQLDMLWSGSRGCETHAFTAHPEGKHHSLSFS"}, "FGFR3(G697C)": {"biological_target": "T34, FGFR3(G697C) (Homo sapiens, UniProt P22607, G697C)", "T34 construct": "purchased DiscoveRx KINOMEscan"}, "PIK3CA(E545A)": {"biological_target": "T35, PIK3CA(E545A) (Homo sapiens, UniProt P42336, E545A)", "T35 construct": "purchased DiscoveRx KINOMEscan"}, "[4]": {"biological_target": "RPS6KA5(Kin.Dom.2-C-terminal) (Homo sapiens, UniProt O75582)"}, "MAP3K4": {"biological_target": "T36, MAP3K4 (Homo sapiens, UniProt Q9Y6R4)", "T36 construct": "purchased DiscoveRx KINOMEscan"}, "KIT(V559D)": {"biological_target": "T37, KIT(V559D) (Homo sapiens, UniProt P10721, V559D)", "T37 construct": "purchased DiscoveRx KINOMEscan"}, "GRK4": {"biological_target": "T38, GRK4 (Homo sapiens, UniProt P32298)", "T38 construct": "purchased DiscoveRx KINOMEscan", "T38 sequence (P32298 whole entry)": "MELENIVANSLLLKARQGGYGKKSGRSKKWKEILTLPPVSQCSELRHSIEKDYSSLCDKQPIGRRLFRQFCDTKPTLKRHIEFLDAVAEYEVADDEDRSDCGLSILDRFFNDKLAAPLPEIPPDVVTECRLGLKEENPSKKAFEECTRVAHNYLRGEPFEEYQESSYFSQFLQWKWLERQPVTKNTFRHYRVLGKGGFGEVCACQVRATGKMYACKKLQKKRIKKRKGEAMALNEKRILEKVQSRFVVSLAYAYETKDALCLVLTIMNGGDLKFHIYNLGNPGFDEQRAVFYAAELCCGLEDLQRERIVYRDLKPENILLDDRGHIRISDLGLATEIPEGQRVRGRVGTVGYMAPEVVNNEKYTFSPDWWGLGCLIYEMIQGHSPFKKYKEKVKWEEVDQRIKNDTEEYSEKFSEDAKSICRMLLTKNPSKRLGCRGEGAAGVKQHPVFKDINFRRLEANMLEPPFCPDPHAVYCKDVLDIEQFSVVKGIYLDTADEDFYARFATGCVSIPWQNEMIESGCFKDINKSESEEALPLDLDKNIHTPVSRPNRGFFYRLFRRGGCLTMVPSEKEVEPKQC"}, "BMPR1A": {"biological_target": "T39, BMPR1A (Homo sapiens, UniProt P36894)", "T39 construct": "purchased DiscoveRx KINOMEscan", "T39 sequence (P36894 24-532)": "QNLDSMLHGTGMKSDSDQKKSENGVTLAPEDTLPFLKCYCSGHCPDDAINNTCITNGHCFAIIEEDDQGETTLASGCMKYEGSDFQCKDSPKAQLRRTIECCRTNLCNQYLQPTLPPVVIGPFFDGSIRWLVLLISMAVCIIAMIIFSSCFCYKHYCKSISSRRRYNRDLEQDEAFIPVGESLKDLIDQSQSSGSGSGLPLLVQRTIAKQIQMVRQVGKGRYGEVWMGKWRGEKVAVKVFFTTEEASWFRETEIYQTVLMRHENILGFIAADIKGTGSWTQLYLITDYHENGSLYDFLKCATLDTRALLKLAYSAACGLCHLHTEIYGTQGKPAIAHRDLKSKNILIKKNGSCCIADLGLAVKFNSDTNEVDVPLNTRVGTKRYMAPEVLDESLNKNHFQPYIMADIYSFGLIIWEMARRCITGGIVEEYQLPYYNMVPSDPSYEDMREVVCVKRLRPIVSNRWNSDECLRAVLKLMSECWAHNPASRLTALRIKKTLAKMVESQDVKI"}, "MET": {"biological_target": "T40, MET (Homo sapiens, UniProt P08581)", "T40 construct": "purchased DiscoveRx KINOMEscan"}},
  "data": [
    {"smiles": "Cc1nc(NC(=O)[C@@H](N)C(C)C)sc1-c1cnc(Cl)c(NS(=O)(=O)c2ccccc2)c1", "note": "[PI3KD-IN-015]", "values": [
      {"measurement": "KinomeScan MST1", "setting": "MST1", "value": 83},
      {"measurement": "KinomeScan CSNK1A1", "setting": "CSNK1A1", "value": 100},
      {"measurement": "KinomeScan HUNK", "setting": "HUNK", "value": 100},
      {"measurement": "KinomeScan SgK110", "setting": "SgK110", "value": 100},
      {"measurement": "KinomeScan MAK", "setting": "MAK", "value": 72},
      {"measurement": "KinomeScan MEK6", "setting": "MEK6", "value": 100},
      {"measurement": "KinomeScan ALK(L1196M)", "setting": "ALK(L1196M)", "value": 100},
      {"measurement": "KinomeScan PHKG2", "setting": "PHKG2", "value": 91},
      {"measurement": "KinomeScan PKN1", "setting": "PKN1", "value": 100},
      {"measurement": "KinomeScan TRKB", "setting": "TRKB", "value": 100},
      {"measurement": "KinomeScan EIF2AK1", "setting": "EIF2AK1", "value": 100},
      {"measurement": "KinomeScan EPHB1", "setting": "EPHB1", "value": 100},
      {"measurement": "KinomeScan PRKCE", "setting": "PRKCE", "value": 100},
      {"measurement": "KinomeScan FLT3(D835H)", "setting": "FLT3(D835H)", "value": 94},
      {"measurement": "KinomeScan BRK", "setting": "BRK", "value": 92},
      {"measurement": "KinomeScan RPS6KA4(Kin.Dom.1-N-terminal)", "setting": "[1]", "value": 86},
      {"measurement": "KinomeScan MAST1", "setting": "MAST1", "value": 100},
      {"measurement": "KinomeScan ALK", "setting": "ALK", "value": 100},
      {"measurement": "KinomeScan TTK", "setting": "TTK", "value": 96},
      {"measurement": "KinomeScan INSR", "setting": "INSR", "value": 74},
      {"measurement": "KinomeScan MAP3K2", "setting": "MAP3K2", "value": 100},
      {"measurement": "KinomeScan ZAP70", "setting": "ZAP70", "value": 96},
      {"measurement": "KinomeScan MARK4", "setting": "MARK4", "value": 100},
      {"measurement": "KinomeScan NIM1", "setting": "NIM1", "value": 100},
      {"measurement": "KinomeScan IRAK1", "setting": "IRAK1", "value": 60},
      {"measurement": "KinomeScan MET(M1250T)", "setting": "MET(M1250T)", "value": 74},
      {"measurement": "KinomeScan LCK", "setting": "LCK", "value": 100},
      {"measurement": "KinomeScan RSK3(Kin.Dom.1-N-terminal)", "setting": "[2]", "value": 100},
      {"measurement": "KinomeScan FLT3", "setting": "FLT3", "value": 100},
      {"measurement": "KinomeScan EGFR(E746-A750del)", "setting": "EGFR(E746-A750del)", "value": 100},
      {"measurement": "KinomeScan PKNB(M.tuberculosis)", "setting": "PKNB(M.tuberculosis)", "value": 79},
      {"measurement": "KinomeScan HPK1", "setting": "HPK1", "value": 87},
      {"measurement": "KinomeScan JAK3(JH1domain-catalytic)", "setting": "[3]", "value": 98},
      {"measurement": "KinomeScan FGFR3(G697C)", "setting": "FGFR3(G697C)", "value": 100},
      {"measurement": "KinomeScan PIK3CA(E545A)", "setting": "PIK3CA(E545A)", "value": 5.2},
      {"measurement": "KinomeScan RPS6KA5(Kin.Dom.2-C-terminal)", "setting": "[4]", "value": 100},
      {"measurement": "KinomeScan MAP3K4", "setting": "MAP3K4", "value": 100},
      {"measurement": "KinomeScan KIT(V559D)", "setting": "KIT(V559D)", "value": 87},
      {"measurement": "KinomeScan GRK4", "setting": "GRK4", "value": 92},
      {"measurement": "KinomeScan BMPR1A", "setting": "BMPR1A", "value": 84},
      {"measurement": "KinomeScan MET", "setting": "MET", "value": 100}
    ]}
  ]
}
